Experimental data published in patent US20230203081A1, “LINCOSAMIDE ANTIBIOTICS AND USES THEREOF” (President and Fellows of Harvard College, priority 2020, published 2023).
Converted amounts (≈) assume the structure as drawn.

Legend:
Type in all cases: cell-based
E. coli ΔTolC = assay: microbe, parasite or virus in culture; conditions: Escherichia coli, E. coli HAV#038; ΔTolC
In short: (§1)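 Per CLSI, MICs by broth microdilution or agar dilution; strains other than streptococci and anaerobes were sub-cultured overnight at 35° C on blood agar, with a final broth inoculum of 5×10^5 CFU/mL.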

S. aureus BAA 977 iErmA = assay: microbe, parasite or virus in culture; conditions: Staphylococcus aureus, BAA-977 / MRSA
In short: as §1

S. aureus MP-549 msrA = assay: microbe, parasite or virus in culture; conditions: Staphylococcus aureus, MP549MSRA; S. aureus HAV#032, MP-549; MSR(A); read-out: MIC
In short: as §1

[1] = tested on: broad panel of different clinical isolates; assay: microbe, parasite or virus in culture
In short: as §1

E. coli LptD = assay: MIC (broth microdilution or agar dilution, CLSI); conditions: Escherichia coli, E. coli HAV#040; LptD; read-out: MIC
In short: as §1

E. faecalis ATCC 29212 = assay: MIC (broth microdilution or agar dilution, CLSI); conditions: Enterococcus faecalis, ATCC29212, E. faecalis HAV#005, ATCC 29212; read-out: MIC
In short: as §1

S. aureus ATCC 29213 = assay: MIC (broth microdilution or agar dilution, CLSI); conditions: Staphylococcus aureus, ATCC29213, S. aureus HAV#001, ATCC 29213, MP-549; read-out: MIC
In short: as §1

S. aureus ATCC 700699 = assay: MIC (broth microdilution or agar dilution, CLSI); conditions: Staphylococcus aureus; S. aureus HAV#202, ATCC 700699 (VISA); read-out: MIC
In short: as §1

[2] = tested on: S. aureus ATCC BAA-1707 (MRSA); assay: MIC (broth microdilution or agar dilution, CLSI); conditions: Staphylococcus aureus; S. aureus HAV#016, ATCC BAA-1707; MRSA; read-out: MIC
In short: as §1

S. aureus MMX 3035 cErmA = assay: MIC (broth microdilution or agar dilution, CLSI); conditions: Staphylococcus aureus, MMX3035CERMA; S. aureus HAV#031, MMX 3035; cErmA; read-out: MIC
In short: as §1

S. aureus hVISA = assay: MIC (broth microdilution or agar dilution, CLSI); conditions: Staphylococcus aureus; S. aureus HAV#204, hVISA; read-out: MIC
In short: as §1

S. pneumoniae ATCC 49619 = assay: MIC (broth microdilution or agar dilution, CLSI); conditions: Streptococcus pneumoniae, ATCC49619, S. pneumoniae HAV#003, ATCC 49619; read-out: MIC
In short: as §1

[3] = tested on: S. pneumoniae MMX 3028 cErmB; assay: MIC (broth microdilution or agar dilution, CLSI); conditions: Streptococcus pneumoniae, MMX3028CERMB; S. pneumoniae HAV#033; MMX 3028, cErmB; read-out: MIC
In short: as §1

[4] = tested on: S. pneumoniae MMX 3031 cMefA; assay: MIC (broth microdilution or agar dilution, CLSI); conditions: Streptococcus pneumoniae, MMX3031CMEFA, S. pneumoniae HAV#034; MMX 3031, cMefA; read-out: MIC
In short: as §1

S. pyogenes ATCC 19615 = assay: MIC (broth microdilution or agar dilution, CLSI); conditions: Streptococcus pyogenes, ATCC19615, S. pyogenes HAV#004, ATCC 19615; read-out: MIC
In short: as §1

[5] = tested on: S. pyogenes MMX 946; cErmB; assay: MIC (broth microdilution or agar dilution, CLSI); conditions: Streptococcus pyogenes; S. pyogenes HAV#035, MMX 946; cErmB, mac-resistant; read-out: MIC
In short: as §1

CC(=O)NC[C@H]1CN(c2ccc(N3CCOCC3)c(F)c2)C(=O)O1 [Linezolid]
MIC (E. coli ΔTolC): 8 µg/mL (≈ 23.7 µM)
MIC (S. aureus BAA 977 iErmA): 2 µg/mL (≈ 5.93 µM)
MIC (S. aureus BAA 977 iErmA; 24 h): 4 µg/mL (≈ 11.9 µM)
MIC (S. aureus MP-549 msrA): 4 µg/mL (≈ 11.9 µM)
MIC ([1]; Acinetobacter baumannii, A. baumannii HAV#651, Clinical): 16 µg/mL (≈ 47.4 µM)
MIC ([1]; Acinetobacter baumannii, A. baumannii HAV#652 Clinical): 32 µg/mL (≈ 94.9 µM)
MIC ([1]; Acinetobacter baumannii, A. baumannii HAV#653, Clinical): 32 µg/mL (≈ 94.9 µM)
MIC ([1]; Acinetobacter baumannii, A. baumannii HAV#654, Clinical): 32 µg/mL (≈ 94.9 µM)
MIC ([1]; Acinetobacter baumannii, A. baumannii HAV#655, Clinical): 128 µg/mL (≈ 379 µM)
MIC ([1]; Acinetobacter baumannii, A. baumannii HAV#656, Clinical): 64 µg/mL (≈ 190 µM)
MIC ([1]; Acinetobacter baumannii, A. baumannii HAV#657, Clinical): 64 µg/mL (≈ 190 µM)
MIC ([1]; Acinetobacter baumannii, A. baumannii HAV#658, Clinical): 64 µg/mL (≈ 190 µM)
MIC ([1]; Acinetobacter baumannii, A. baumannii HAV#659, Clinical): 64 µg/mL (≈ 190 µM)
MIC ([1]; Acinetobacter baumannii, A. baumannii HAV#660, Clinical): 64 µg/mL (≈ 190 µM)
MIC ([1]; Acinetobacter baumannii, A. baumannii HAV#661, Clinical): 32 µg/mL (≈ 94.9 µM)
MIC ([1]; Acinetobacter baumannii, A. baumannii HAV#662, Clinical): 64 µg/mL (≈ 190 µM)
MIC ([1]; Acinetobacter baumannii, A. baumannii HAV#663, Clinical): 32 µg/mL (≈ 94.9 µM)
MIC ([1]; Acinetobacter baumannii, A. baumannii HAV#664, Carbapenem R): 64 µg/mL (≈ 190 µM)
MIC ([1]; Enterococcus faecalis, E. faecalis HAV#602, Clincal): 4 µg/mL (≈ 11.9 µM)
MIC ([1]; Enterococcus faecalis, E. faecalis HAV#607, Clinical): 16 µg/mL (≈ 47.4 µM)
MIC ([1]; Enterococcus faecalis, E. faecalis HAV#609, Clinical): 4 µg/mL (≈ 11.9 µM)
MIC ([1]; Enterococcus faecalis, S. faecalis 5060, Line R & Vanco R): 8 µg/mL (≈ 23.7 µM)
MIC ([1]; Enterococcus faecalis, S. faecalis 5074, Line R): 8 µg/mL (≈ 23.7 µM)
MIC ([1]; Enterococcus faecalis, VRE, E. faecalis HAV#251, Clinical VRE): 2 µg/mL (≈ 5.93 µM)
MIC ([1]; Enterococcus faecalis, VRE, E. faecalis HAV#606, Clinical): 2 µg/mL (≈ 5.93 µM)
MIC ([1]; Enterococcus faecium, E. faecium HAV#317, Clinical): 2 µg/mL (≈ 5.93 µM)
MIC ([1]; Enterococcus faecium, E. faecium HAV#324, Clinical): 4 µg/mL (≈ 11.9 µM)
MIC ([1]; Enterococcus faecium, E. faecium HAV#327, Clinical): 4 µg/mL (≈ 11.9 µM)
MIC ([1]; Enterococcus faecium, E. faecium HAV#329, Clinical): 4 µg/mL (≈ 11.9 µM)
MIC ([1]; Enterococcus faecium, VRE, E. faecium HAV#318, VanA): 4 µg/mL (≈ 11.9 µM)
MIC ([1]; Enterococcus faecium, VRE, E. faecium HAV#319, Line R & Vanco R): 64 µg/mL (≈ 190 µM)
MIC ([1]; Enterococcus faecium, VRE, E. faecium HAV#320, Clinical): 2 µg/mL (≈ 5.93 µM)
MIC ([1]; Escherichia coli, E. coli HAV#503, Clinical): 128 µg/mL (≈ 379 µM)
MIC ([1]; Escherichia coli, E. coli HAV#511, Clinical): 32 µg/mL (≈ 94.9 µM)
MIC ([1]; Escherichia coli, E. coli HAV#512, Clinical): 32 µg/mL (≈ 94.9 µM)
MIC ([1]; Escherichia coli, E. coli HAV#513, Clinical): 32 µg/mL (≈ 94.9 µM)
MIC ([1]; Escherichia coli, E. coli HAV#514, Clinical): 32 µg/mL (≈ 94.9 µM)
MIC ([1]; Escherichia coli, E. coli HAV#516, ESBL-producing): 64 µg/mL (≈ 190 µM)
MIC ([1]; Haemophilus influenzae, ATCC9007, H. influenzae HAV#376, ATCC-9007): 4 µg/mL (≈ 11.9 µM)
MIC ([1]; Klebsiella pneumoniae, K. pneumoniae HAV#404, Clinical): 32 µg/mL (≈ 94.9 µM)
MIC ([1]; Klebsiella pneumoniae, K. pneumoniae HAV#405, Clinical): 32 µg/mL (≈ 94.9 µM)
MIC ([1]; Klebsiella pneumoniae, K. pneumoniae HAV#406, Clinical): 32 µg/mL (≈ 94.9 µM)
MIC ([1]; Klebsiella pneumoniae, K. pneumoniae HAV#407, Clinical): 32 µg/mL (≈ 94.9 µM)
MIC ([1]; Klebsiella pneumoniae, K. pneumoniae HAV#408, Clinical): 32 µg/mL (≈ 94.9 µM)
MIC ([1]; Klebsiella pneumoniae, K. pneumoniae HAV#409, ESBL-producing): 64 µg/mL (≈ 190 µM)
MIC ([1]; Staphylococcus aureus, MRSA, S. aureus HAV#0107, MRSA Col(Colindale, England)): 2 µg/mL (≈ 5.93 µM)
MIC ([1]; Staphylococcus aureus, MRSA, S. aureus HAV#218, Line R): 8 µg/mL (≈ 23.7 µM)
MIC ([1]; Staphylococcus aureus, MRSA, S. aureus HAV#220, Line R): 32 µg/mL (≈ 94.9 µM)
MIC ([1]; Staphylococcus aureus, MSSA, S. aureus HAV#219, Line R): 32 µg/mL (≈ 94.9 µM)
MIC ([1]; Staphylococcus aureus, S. aureus HAV#051, mecA, norA, spcl, ermA, aad1, aac6′-aph2″): 4 µg/mL (≈ 11.9 µM)
MIC ([1]; Staphylococcus aureus, S. aureus HAV#052, mecA, norA, fosB, blaZ): 4 µg/mL (≈ 11.9 µM)
MIC ([1]; Staphylococcus aureus, S. aureus HAV#053 mecA, norA, fosB): 4 µg/mL (≈ 11.9 µM)
MIC ([1]; Staphylococcus aureus, S. aureus HAV#054, mecA, norA, spcl, aad1, fosB, ermA, aac6′-aph2″, blaZ): 1 µg/mL (≈ 2.96 µM)
MIC ([1]; Staphylococcus aureus, S. aureus HAV#211, Clinical): 4 µg/mL (≈ 11.9 µM)
MIC ([1]; Staphylococcus aureus, S. aureus HAV#212, Clinical): 4 µg/mL (≈ 11.9 µM)
MIC ([1]; Staphylococcus aureus, S. aureus HAV#214, Clinical): 4 µg/mL (≈ 11.9 µM)
MIC ([1]; Staphylococcus aureus, S. aureus HAV#216, Clinical, cfr): 16 µg/mL (≈ 47.4 µM)
MIC ([1]; Staphylococcus aureus, S. aureus HAV#217, cfr): 64 µg/mL (≈ 190 µM)
MIC ([1]; Staphylococcus aureus, VISA, S. aureus HAV#203, Clinical (VISA)): 2 µg/mL (≈ 5.93 µM)
MIC ([1]; Staphylococcus epidermidis, S. epidermidis HAV# 275 Clinical, cfr): > 64 µg/mL
MIC ([1]; Staphylococcus epidermidis, S. epidermidis HAV# 276, cfr): > 64 µg/mL
MIC ([1]; Staphylococcus epidermidis, S. epidermidis HAV#277, Line R): > 128 µg/mL
MIC ([1]; Staphylococcus epidermidis, S. epidermidis HAV#278 Line R): 64 µg/mL (≈ 190 µM)
MIC ([1]; Staphylococcus epidermidis, S. epidermidis HAV#279, Line R): 4 µg/mL (≈ 11.9 µM)
MIC ([1]; Staphylococcus haemolyticus, S. haemolyticus 5052, Line R & Methicillin R): 64 µg/mL (≈ 190 µM)
MIC ([1]; Streptococcus pneumoniae, ATCC700673, S. pneumoniae HAV#352, ATCC 700673, MDR): 4 µg/mL (≈ 11.9 µM)
MIC ([1]; Streptococcus pneumoniae, ATCCBAA255, S. pneumoniae HAV#354, ATCC-BAA-255): 4 µg/mL (≈ 11.9 µM)
MIC ([1]; Streptococcus pneumoniae, ATCCBAA334, S. pneumoniae HAV#353, ATCC-BAA-334): 4 µg/mL (≈ 11.9 µM)
MIC ([1]; Streptococcus pneumoniae, S. pneumoniae HAV#356, Clinical): 4 µg/mL (≈ 11.9 µM)
MIC ([1]; Streptococcus pneumoniae, S. pneumoniae HAV#358, Clinical): 4 µg/mL (≈ 11.9 µM)
MIC (E. coli LptD): 32 µg/mL (≈ 94.9 µM)
MIC (E. faecalis ATCC 29212): 2 µg/mL (≈ 5.93 µM)
MIC (S. aureus ATCC 29213): 2 µg/mL (≈ 5.93 µM)
MIC (S. aureus ATCC 700699): 2 µg/mL (≈ 5.93 µM)
MIC [2]: 2 µg/mL (≈ 5.93 µM)
MIC (S. aureus MMX 3035 cErmA): 2 µg/mL (≈ 5.93 µM)
MIC (S. aureus hVISA): 2 µg/mL (≈ 5.93 µM)
MIC (S. pneumoniae ATCC 49619): 1 µg/mL (≈ 2.96 µM)
MIC [3]: 0.5 µg/mL (≈ 1.48 µM)
MIC [4]: 1 µg/mL (≈ 2.96 µM)
MIC (S. pyogenes ATCC 19615): 2 µg/mL (≈ 5.93 µM)
MIC [5]: 1 µg/mL (≈ 2.96 µM)
